According to patent US8962600B2, “Neuroprotective compounds and their use” (The Medical College of Wisconsin, Inc., priority 2009, dated 2015):

What was measured:
[1] = test system: 3-nitrotyrosine (3-NT); assay: 3-nitrotyrosine expression in substantia nigra, Western blot and immunostaining; type: in vivo, C57BL/6 mice
Procedure: (§1) For checking inflammatory and oxidative stress markers, mice were gavaged diapocynin (300 mg/kg dose) 1 day before MPTP treatment (pre-treatment) and continued for another 4 days of co-treatment with MPTP. In the sub-acute MPTP regimen, MPTP (25 mg/kg) was injected intraperitoneally once per day from day 2 to day 7. Control mice received saline at the same dosage.
Four days after MPTP treatment, mice were perfused with 4% paraformaldehyde (PFA) and post-fixed with PFA and 30% sucrose, respectively. Next, fixed brains were cut into 30 μm sections and kept in 30% sucrose-ethylene glycol solutions at −20° C. On the day of staining, sections were rinsed with phosphate-buffered saline (PBS) and incubated with different primary antibodies, including anti-IBA-1 (DAKO, Carpinteria, Calif.), anti-GFAP (Millipore, Billerica, Mass.), anti-iNOS (Santa Cruz Biotechnology, Santa Cruz, Calif.), anti-3NT (Millipore), anti-4HNE (R&D Systems, Minneapolis, Minn.) and anti-gp91phox (Santa Cruz Biotechnology) for overnight at 4° C. Appropriate secondary antibodies (Alexa Fluor 488, 594, or 555 from Invitrogen, Carlsbad, Calif.) were used followed by incubation with 10 μg/ml Hoechst 33342 for 5 min at room temperature to stain the nucleus. Sections were viewed under a Nikon inverted fluorescence microscope (model TE-2000U; Nikon, Tokyo, Japan). […]

[2] = test system: inducible nitric oxide synthase (iNOS/NOS2); assay: iNOS expression in substantia nigra, Western blot and immunostaining; type: in vivo, C57BL/6 mice; conditions: MPTP-treated mice that also received diapocynin 300 mg/kg gavage
Procedure: as §1
Four days after MPTP treatment, mice were perfused with 4% paraformaldehyde (PFA) and post-fixed with PFA and 30% sucrose, respectively. Next, fixed brains were cut into 30 μm sections and kept in 30% sucrose-ethylene glycol solutions at −20° C. On the day of staining, sections were rinsed with phosphate-buffered saline (PBS) and incubated with different primary antibodies, including anti-IBA-1 (DAKO, Carpinteria, Calif.), anti-GFAP (Millipore, Billerica, Mass.), anti-iNOS (Santa Cruz Biotechnology, Santa Cruz, Calif.), anti-3NT (Millipore), anti-4HNE (R&D Systems, Minneapolis, Minn.) and anti-gp91phox (Santa Cruz Biotechnology) for overnight at 4° C. Appropriate secondary antibodies (Alexa Fluor 488, 594, or 555 from Invitrogen, Carlsbad, Calif.) were used followed by incubation with 10 μg/ml Hoechst 33342 for 5 min at room temperature to stain the nucleus. Sections were viewed under a Nikon inverted fluorescence microscope (model TE-2000U; Nikon, Tokyo, Japan). Images were captured with a SPOT digital camera (Diagnostic Instruments, Inc., Sterling Heights, Mich.).
Mice were sacrificed 4 days or 7 days after MPTP treatment and substantia nigra tissue was dissected out. Brain lysates containing equal amounts of protein were loaded in each lane and separated on a 10 to 12% SDS polyacrylamide gel, as described previously (48). After the separation, proteins were transferred to a nitrocellulose membrane and nonspecific binding sites were blocked by treating with Li-Cor Odyssey blocking buffer (Li-Cor Biosciences, Lincoln, Nebr.). The membranes were then incubated with different primary antibodies including anti-TH (Millipore), anti-iNOS (Calbiochem), anti-3NT (Millipore) and anti-4HNE (R&D Systems). […]

[3] = test system: MPTP-intoxicated mice; assay: Rotarod in MPTP-injected mice; type: in vivo, C57BL/6 mice; conditions: 20 rpm; MPTP- and diapocynin-treated mice; 300 mg/kg oral gavage; 5 days after last MPTP injection
Procedure: Six- to 8-week-old C57BL/6 mice weighing 24 to 28 g were housed in standard conditions of constant temperature (22±1° C.), humidity (relative, 30%), and a 12-h light/dark cycle. Mice were allowed free access to food and water. Use of the animals and protocol procedures were approved and supervised by the Committee on Animal Care at Iowa State University (Ames, Iowa). For neurodegeneration studies, mice either received diapocynin (300 mg/kg dose) by oral gavage for 1 day (pre-treatment before MPTP administration), 5 days (co-treatment with MPTP), or 7 days (post-treatment after MPTP).
Two types of behavioral tests were performed including an Open Field experiment for testing locomotor activities and a Rotarod experiment to test coordination of movement of mice after MPTP and diapocynin treatment (48, 56). An Open Field activity monitor (model RXYZCM-16; AccuScan, Columbus, Ohio) was used to measure the spontaneous activity of mice. The activity chamber was 40×40×30.5 cm, made of clear PLEXIGLAS® and covered with a PLEXIGLAS® lid with holes for ventilation. Infrared monitoring sensors were located every 2.54 cm along the perimeter (16 infrared beams along each side) and 2.5 cm above the floor. Two additional sets of 16 sensors were located 8.0 cm above the floor on opposite sides. Data were collected and analyzed by a VersaMax Analyzer (model CDA-8, AccuScan). […]

[4] = test system: IL-10; assay: LPS-induced IL-10 release in primary microglia, LUMINEX immunoassay; type: cell-based, mouse; conditions: diapocynin 10 μM, LPS 24 hr
Procedure: Primary microglia were obtained from 1-2 day old C57/b16 mouse pups. Upon collection, whole brains were kept in ice-cold DMEM-F12 medium containing 10% FBS, 1× sodium pyruvate, 1× NEAAs, 100 units pen/strep, and Q. After collection, the brains were placed in 0.25% trypsin-EDTA and incubated at 37° C., with gentle shaking every 5-10 min. After 30 min, the trypsin was removed, and the brains are washed in warmed medium twice. After washing, medium was added to the brains, and the brains were homogenized using gentle pipetting, starting with a 25 ml pipette and moving to smaller pipette tips as the brains were broken up. When the brains were sufficiently homogenized to a single-cell suspension, they were filtered with a 70 μm nylon filter, which allowed microglia and astrocytes to be collected. The resultant cell suspension was plated in T-75 flasks and allowed to grow for 12-14 days at 37° C., 5% CO2. […]
Cytokine levels of BV2 and microglial cells treated with diapocynin were determined by LUMINEX® multiplex immunoassay. […]
Cytokine standards and controls were adjusted to 40 μl volume and the LUMINEX® Samples were run on a LUMINEX® 200 Total System and analyzed with Multiplex Analysis—LUMINEX® Software (Invitrogen, Carlsbad, Calif.).

**Q.** Which “MPTP-induced expression of 3-NT in substantia nigra” value ([1]; diapocynin 300 mg/kg gavage, MPTP 25 mg/kg i.p.) does the source give for `COc1cc(C(C)=O)cc(-c2cc(C(C)=O)cc(OC)c2O)c1O` [diapocynin] here?
**A.** attenuated

**Q.** And the “TH positive cells colocalized with 3-NT” value ([1]; double-labeling, MPTP-treated mice that also received diapocynin 300 mg/kg)?
**A.** very few

**Q.** What about the “colocalized cells of iNOS and GFAP in substantia nigra” value [2] of the same molecule?
**A.** very few colocalized cells

**Q.** And the “colocalized cells of iNOS and IBA-1 in substantia nigra” value [2]?
**A.** very few colocalized cells

**Q.** And the “staining of iNOS in substantia nigra” value [2]?
**A.** marked decrease

**Q.** What about the “decrease in time spent on Rotarod compared to control mice” value [3] of the same molecule?
**A.** < 25%

**Q.** And the “blocking LPS-induced release of IL-10” value [4]?
**A.** very effective
